Legend:
Assay in all cases: KINOMEscan
Assay type in all cases: binding
Conditions in all cases: 2000 nM
[1] = biological target: ABL1(T315I)-phosphorylated (Homo sapiens, UniProt P00519, T315I)
[2] = tested on: FLT3 (ITD)
Excerpt: (§1) Nat. Biotechnol. 23, 329-336 (2005).
(§2) Percent Control (% Ctrl).

[3] = biological target: T1, PFPK5(P.falciparum) (Plasmodium falciparum, UniProt P61075)
T1 construct: DNA label (for qPCR read-out); purchased DiscoveRx (KINOMEscan scanMAX service)
Excerpt: as §1, §2

[4] = biological target: T2, PRP4 (Homo sapiens, UniProt Q13523)
T2 construct: purchased DiscoveRx (KINOMEscan scanMAX panel)
Excerpt: as §1, §2

[5] = biological target: T3, CDC2L5 (Homo sapiens, UniProt Q14004)
T3 construct: purchased DiscoverX (KINOMEscan service)
Excerpt: as §1, §2

[6] = tested on: FLT3(ITD, F691L)
Excerpt: as §1, §2

[7] = biological target: T4, PFCDPK1(P.falciparum) (Plasmodium falciparum, UniProt P62344)
T4 construct: DNA label (for qPCR read-out); purchased DiscoveRx (KINOMEscan scanMAX service)
Excerpt: as §1, §2

[8] = tested on: FLT3(ITD, D835V)
Excerpt: as §1, §2

[9] = biological target: T5, EGFR(S752-I759del) (Homo sapiens, UniProt P00533, DEL752-759)
T5 construct: purchased DiscoveRx (KINOMEscan scanMAX panel)

[10] = biological target: T6, MEK3 (Homo sapiens, UniProt P46734)
T6 construct: purchased DiscoveRx (KINOMEscan scanMAX panel, service)

[11] = biological target: T7, CASK (Homo sapiens, UniProt O14936)
T7 construct: DNA label (qPCR read-out); purchased KINOMEscan (ScanMAX panel service)
T7 sequence (O14936 whole entry): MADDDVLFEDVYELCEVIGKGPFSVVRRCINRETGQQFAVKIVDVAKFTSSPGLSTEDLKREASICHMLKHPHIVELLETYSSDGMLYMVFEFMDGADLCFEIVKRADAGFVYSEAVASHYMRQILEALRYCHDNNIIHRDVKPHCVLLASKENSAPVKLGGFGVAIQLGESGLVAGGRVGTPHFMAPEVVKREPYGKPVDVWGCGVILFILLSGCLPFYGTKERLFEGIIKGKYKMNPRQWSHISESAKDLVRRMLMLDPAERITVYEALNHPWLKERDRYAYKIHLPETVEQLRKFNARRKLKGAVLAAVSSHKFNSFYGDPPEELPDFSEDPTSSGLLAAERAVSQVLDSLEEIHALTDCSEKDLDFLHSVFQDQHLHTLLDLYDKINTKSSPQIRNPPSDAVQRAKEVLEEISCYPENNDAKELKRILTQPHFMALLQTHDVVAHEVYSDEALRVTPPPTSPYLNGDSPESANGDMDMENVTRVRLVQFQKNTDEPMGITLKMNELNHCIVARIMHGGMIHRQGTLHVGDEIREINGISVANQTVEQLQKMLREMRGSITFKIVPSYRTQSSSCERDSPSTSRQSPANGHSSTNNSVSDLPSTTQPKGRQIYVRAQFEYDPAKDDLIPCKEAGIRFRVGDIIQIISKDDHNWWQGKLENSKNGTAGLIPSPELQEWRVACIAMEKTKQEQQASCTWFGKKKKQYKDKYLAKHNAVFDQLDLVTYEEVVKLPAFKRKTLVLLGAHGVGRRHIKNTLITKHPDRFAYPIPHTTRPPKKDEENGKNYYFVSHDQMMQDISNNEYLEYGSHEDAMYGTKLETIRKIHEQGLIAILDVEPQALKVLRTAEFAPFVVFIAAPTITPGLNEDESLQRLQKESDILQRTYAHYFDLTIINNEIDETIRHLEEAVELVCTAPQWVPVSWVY

[12] = biological target: T8, LRRK2 (Homo sapiens, UniProt Q5S007)
T8 construct: purchased KINOMEscan (DiscoveRx) panel service

[13] = biological target: T9, ALK(C1156Y) (Homo sapiens, UniProt Q9UM73, C1156Y)
T9 construct: DNA label (qPCR read-out); purchased KINOMEscan scanMAX panel (DiscoveRx)
T9 sequence (Q9UM73 19-1620 C1156Y): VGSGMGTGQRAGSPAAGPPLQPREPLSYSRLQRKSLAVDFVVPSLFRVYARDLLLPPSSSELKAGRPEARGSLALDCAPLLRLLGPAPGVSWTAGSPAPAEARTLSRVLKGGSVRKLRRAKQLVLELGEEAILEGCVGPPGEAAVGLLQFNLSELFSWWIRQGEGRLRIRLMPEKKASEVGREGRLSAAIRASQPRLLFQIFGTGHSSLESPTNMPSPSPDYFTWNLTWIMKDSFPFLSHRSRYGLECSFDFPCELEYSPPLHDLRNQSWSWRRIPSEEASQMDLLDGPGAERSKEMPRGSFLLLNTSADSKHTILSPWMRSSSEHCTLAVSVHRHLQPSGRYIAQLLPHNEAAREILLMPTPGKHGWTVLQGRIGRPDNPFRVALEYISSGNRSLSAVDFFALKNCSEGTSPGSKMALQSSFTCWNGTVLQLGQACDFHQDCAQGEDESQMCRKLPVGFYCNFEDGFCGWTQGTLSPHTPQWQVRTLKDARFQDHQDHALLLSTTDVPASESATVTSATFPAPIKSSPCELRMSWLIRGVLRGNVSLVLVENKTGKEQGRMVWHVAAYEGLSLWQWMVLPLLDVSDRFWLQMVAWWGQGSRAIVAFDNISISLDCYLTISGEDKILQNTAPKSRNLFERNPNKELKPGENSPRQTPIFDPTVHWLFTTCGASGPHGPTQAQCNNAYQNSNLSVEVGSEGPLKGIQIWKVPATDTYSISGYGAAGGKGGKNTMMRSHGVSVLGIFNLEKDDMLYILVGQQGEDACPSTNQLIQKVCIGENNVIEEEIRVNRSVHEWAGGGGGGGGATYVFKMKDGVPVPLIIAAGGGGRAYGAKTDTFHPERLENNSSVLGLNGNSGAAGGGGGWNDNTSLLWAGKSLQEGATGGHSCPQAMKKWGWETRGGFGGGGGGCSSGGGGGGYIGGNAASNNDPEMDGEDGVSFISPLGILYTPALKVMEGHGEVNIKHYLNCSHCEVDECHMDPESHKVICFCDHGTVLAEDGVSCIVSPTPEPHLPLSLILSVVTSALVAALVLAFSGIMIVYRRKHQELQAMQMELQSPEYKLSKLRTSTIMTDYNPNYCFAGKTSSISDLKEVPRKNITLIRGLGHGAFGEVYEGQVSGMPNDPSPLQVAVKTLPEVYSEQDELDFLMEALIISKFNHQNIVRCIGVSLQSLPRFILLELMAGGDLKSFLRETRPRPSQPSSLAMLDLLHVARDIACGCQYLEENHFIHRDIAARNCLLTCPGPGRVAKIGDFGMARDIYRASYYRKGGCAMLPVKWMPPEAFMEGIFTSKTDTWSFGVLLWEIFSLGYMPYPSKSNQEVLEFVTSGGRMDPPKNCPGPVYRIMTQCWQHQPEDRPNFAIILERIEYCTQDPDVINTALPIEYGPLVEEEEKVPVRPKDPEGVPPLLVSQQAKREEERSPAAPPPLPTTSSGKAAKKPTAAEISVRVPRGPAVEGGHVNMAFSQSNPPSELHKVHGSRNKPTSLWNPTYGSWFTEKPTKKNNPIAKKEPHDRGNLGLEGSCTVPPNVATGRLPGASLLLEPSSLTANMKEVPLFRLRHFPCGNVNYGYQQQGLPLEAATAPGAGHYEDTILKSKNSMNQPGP

[14] = biological target: T10, PHKG2 (Homo sapiens, UniProt P15735)
T10 construct: DNA label (for qPCR read-out); purchased DiscoveRx (KINOMEscan scanMAX service)

[15] = biological target: T11, FGR (Homo sapiens, UniProt P09769)
T11 construct: purchased DiscoveRx (KINOMEscan scanMAX panel)

[16] = biological target: ABL1(F317L)-phosphorylated (Homo sapiens, UniProt P00519, F317L)
[17] = biological target: T12, CLK1 (Homo sapiens, UniProt P49759)
T12 construct: DNA label (for qPCR read-out); purchased DiscoveRx (KINOMEscan scanMAX service)

[18] = biological target: T13, WEE1 (Homo sapiens, UniProt P30291)
T13 construct: purchased KINOMEscan (DiscoveRx) panel service

[19] = biological target: T14, RIOK1 (Homo sapiens, UniProt Q9BRS2)
T14 construct: DNA label (qPCR read-out); purchased DiscoveRx (KINOMEscan ScanMAX panel)
T14 sequence (Q9BRS2 whole entry): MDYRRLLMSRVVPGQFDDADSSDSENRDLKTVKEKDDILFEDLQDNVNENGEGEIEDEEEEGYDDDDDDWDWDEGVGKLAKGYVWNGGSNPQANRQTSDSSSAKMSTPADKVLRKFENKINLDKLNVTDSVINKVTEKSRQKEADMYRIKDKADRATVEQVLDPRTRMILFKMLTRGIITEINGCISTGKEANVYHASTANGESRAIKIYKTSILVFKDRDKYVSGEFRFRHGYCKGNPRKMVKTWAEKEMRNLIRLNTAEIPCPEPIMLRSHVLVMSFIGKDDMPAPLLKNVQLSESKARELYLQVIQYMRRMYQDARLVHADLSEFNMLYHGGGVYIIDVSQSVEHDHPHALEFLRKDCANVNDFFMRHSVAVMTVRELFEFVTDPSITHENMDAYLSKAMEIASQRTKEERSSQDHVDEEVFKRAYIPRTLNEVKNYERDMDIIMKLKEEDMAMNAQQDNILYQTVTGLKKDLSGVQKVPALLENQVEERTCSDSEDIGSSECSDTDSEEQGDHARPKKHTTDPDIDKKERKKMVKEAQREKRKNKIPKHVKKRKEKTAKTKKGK

[20] = biological target: T15, MLCK (Homo sapiens, UniProt Q32MK0)
T15 construct: DNA label (qPCR read-out); purchased KINOMEscan scanMAX panel (DiscoveRx)

[21] = biological target: T16, LTK (Homo sapiens, UniProt P29376)
T16 construct: purchased KINOMEscan (DiscoveRx) panel service

[22] = biological target: T17, PRKCE (Homo sapiens, UniProt Q02156)
T17 construct: purchased DiscoveRx (KINOMEscan scanMAX panel)

[23] = biological target: T18, PIK3CB (Homo sapiens, UniProt P42338)
T18 construct: DNA label; purchased DiscoveRx (KINOMEscan scanMAX panel)

[24] = biological target: T19, CAMKK2 (Homo sapiens, UniProt Q96RR4)
T19 construct: DNA label (qPCR read-out); purchased KINOMEscan (ScanMAX panel service)

[25] = biological target: T20, NEK11 (Homo sapiens, UniProt Q8NG66)
T20 construct: DNA label (qPCR read-out); purchased KINOMEscan (ScanMAX panel service)

[26] = biological target: T21, PCTK2 (Homo sapiens, UniProt Q00537)
T21 construct: purchased DiscoverX (KINOMEscan service)

[27] = biological target: T22, IRAK4 (Homo sapiens, UniProt Q9NWZ3)
T22 construct: DNA label (qPCR read-out); purchased KINOMEscan (DiscoveRx) ScanMAX panel
T22 sequence (Q9NWZ3 whole entry): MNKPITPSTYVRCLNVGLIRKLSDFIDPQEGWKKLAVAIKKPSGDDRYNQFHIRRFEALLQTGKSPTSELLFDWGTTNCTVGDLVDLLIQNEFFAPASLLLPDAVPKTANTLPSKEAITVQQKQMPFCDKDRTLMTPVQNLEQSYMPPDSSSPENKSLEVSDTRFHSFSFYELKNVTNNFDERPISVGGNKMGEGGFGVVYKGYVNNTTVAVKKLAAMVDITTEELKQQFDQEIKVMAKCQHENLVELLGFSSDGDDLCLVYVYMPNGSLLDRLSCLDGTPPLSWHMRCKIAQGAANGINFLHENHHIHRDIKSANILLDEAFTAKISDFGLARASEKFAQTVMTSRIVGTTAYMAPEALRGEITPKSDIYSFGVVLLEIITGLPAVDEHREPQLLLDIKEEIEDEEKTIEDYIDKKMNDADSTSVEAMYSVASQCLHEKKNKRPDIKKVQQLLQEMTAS

[28] = biological target: T23, CDK7 (Homo sapiens, UniProt P50613)
T23 construct: purchased DiscoverX (KINOMEscan service)

[29] = biological target: T24, RPS6KA5(Kin.Dom.1-N-terminal) (Homo sapiens, UniProt O75582)
T24 construct: Kin.Dom.1; DNA label (qPCR read-out); purchased DiscoveRx (KINOMEscan ScanMAX panel)

[30] = biological target: T25, EPHA8 (Homo sapiens, UniProt P29322)
T25 construct: purchased DiscoveRx (KINOMEscan scanMAX panel)

[31] = biological target: T26, EPHA1 (Homo sapiens, UniProt P21709)
T26 construct: purchased DiscoveRx (KINOMEscan scanMAX panel)

[32] = biological target: T27, PIK3CA(H1047Y) (Homo sapiens, UniProt P42336, H1047Y)
T27 construct: DNA label; purchased DiscoveRx (KINOMEscan scanMAX panel)

[33] = biological target: T28, HPK1 (Homo sapiens, UniProt Q92918)
T28 construct: DNA label (for qPCR read-out); purchased DiscoveRx (KINOMEscan scanMAX panel, contract assay)
T28 sequence (Q92918 whole entry): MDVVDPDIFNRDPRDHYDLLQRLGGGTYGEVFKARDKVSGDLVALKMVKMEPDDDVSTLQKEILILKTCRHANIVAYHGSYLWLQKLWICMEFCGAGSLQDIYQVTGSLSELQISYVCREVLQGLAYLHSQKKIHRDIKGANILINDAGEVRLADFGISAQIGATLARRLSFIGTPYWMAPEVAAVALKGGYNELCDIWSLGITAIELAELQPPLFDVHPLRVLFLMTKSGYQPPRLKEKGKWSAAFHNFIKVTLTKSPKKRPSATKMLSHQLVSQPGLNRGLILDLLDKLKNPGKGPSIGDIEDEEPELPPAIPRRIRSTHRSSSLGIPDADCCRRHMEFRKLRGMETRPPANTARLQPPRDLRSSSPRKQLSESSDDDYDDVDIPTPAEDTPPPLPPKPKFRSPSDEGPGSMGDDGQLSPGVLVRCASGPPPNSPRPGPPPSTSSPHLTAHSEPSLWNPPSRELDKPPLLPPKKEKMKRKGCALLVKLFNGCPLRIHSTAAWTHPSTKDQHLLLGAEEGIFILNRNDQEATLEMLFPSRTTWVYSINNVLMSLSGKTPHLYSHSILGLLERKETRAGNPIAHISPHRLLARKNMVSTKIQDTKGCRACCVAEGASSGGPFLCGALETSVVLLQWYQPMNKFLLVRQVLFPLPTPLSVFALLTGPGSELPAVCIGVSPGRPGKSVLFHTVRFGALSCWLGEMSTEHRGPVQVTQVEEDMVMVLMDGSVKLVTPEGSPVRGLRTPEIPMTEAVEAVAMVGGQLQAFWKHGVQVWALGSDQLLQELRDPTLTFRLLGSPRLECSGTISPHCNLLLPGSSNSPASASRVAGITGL

[34] = biological target: T29, PIP5K1C (Homo sapiens, UniProt O60331)
T29 construct: DNA label (qPCR read-out); purchased KINOMEscan (DiscoveRx) panel
T29 sequence (O60331 whole entry): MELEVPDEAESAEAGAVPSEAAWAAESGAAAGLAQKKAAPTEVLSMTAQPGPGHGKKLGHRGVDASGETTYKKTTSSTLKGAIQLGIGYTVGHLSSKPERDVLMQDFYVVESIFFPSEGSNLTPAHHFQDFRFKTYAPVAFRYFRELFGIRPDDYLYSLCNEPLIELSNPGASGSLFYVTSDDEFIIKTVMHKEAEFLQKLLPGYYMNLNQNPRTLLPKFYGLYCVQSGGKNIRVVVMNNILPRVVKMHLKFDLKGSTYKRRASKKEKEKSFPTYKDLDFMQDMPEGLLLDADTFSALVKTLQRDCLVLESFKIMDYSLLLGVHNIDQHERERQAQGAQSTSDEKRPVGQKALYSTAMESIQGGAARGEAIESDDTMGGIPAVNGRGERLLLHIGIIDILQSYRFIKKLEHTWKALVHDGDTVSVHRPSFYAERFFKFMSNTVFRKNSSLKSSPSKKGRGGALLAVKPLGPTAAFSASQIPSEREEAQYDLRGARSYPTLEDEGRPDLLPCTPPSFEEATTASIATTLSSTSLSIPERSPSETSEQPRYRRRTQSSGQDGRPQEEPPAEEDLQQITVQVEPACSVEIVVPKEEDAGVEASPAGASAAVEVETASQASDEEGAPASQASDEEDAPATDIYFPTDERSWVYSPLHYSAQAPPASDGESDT

[35] = biological target: T30, RPS6KA4(Kin.Dom.2-C-terminal) (Homo sapiens, UniProt O75676)
T30 construct: Kin.Dom.2; DNA label (qPCR read-out); purchased DiscoveRx (KINOMEscan ScanMAX panel)

| Compound | % Ctrl [1] [% Ctrl] | % Ctrl [2] [% Ctrl] | % Ctrl [3] [% Ctrl] | % Ctrl [4] [% Ctrl] | % Ctrl [5] [% Ctrl] | % Ctrl [6] [% Ctrl] | % Ctrl [7] [% Ctrl] | % Ctrl [8] [% Ctrl] | % Ctrl [9] [% Ctrl] | % Ctrl [10] [% Ctrl] | % Ctrl [11] [% Ctrl] | % Ctrl [12] [% Ctrl] | % Ctrl [13] [% Ctrl] | % Ctrl [14] [% Ctrl] | % Ctrl [15] [% Ctrl] | % Ctrl [16] [% Ctrl] | % Ctrl [17] [% Ctrl] | % Ctrl [18] [% Ctrl] | % Ctrl [19] [% Ctrl] | % Ctrl [20] [% Ctrl] | other results |
| --- | --- | --- | --- | --- | --- | --- | --- | --- | --- | --- | --- | --- | --- | --- | --- | --- | --- | --- | --- | --- | --- |
| [2H]C([2H])([2H])N(C(=O)c1ccc(N2CCCN(c3ccnc4sc(C(N)=O)c(N)c34)CC2)cc1)C([2H])([2H])[2H] [15u_D6, 3-amino-4-(4-(4-(bis(methyl-d3)carbamoyl)phenyl)-1,4-diazepan-1-yl)thieno[2,3-b]pyridine-2-carboxamide] | 78 | 72 | 67 | 88 | 80 | 75 | 61 | 34 | 100 | 47 | 96 | 70 | 78 | 83 | 100 | 82 | 68 | 88 | 100 | 100 | % Ctrl [21]: 77 % Ctrl; % Ctrl [22]: 97 % Ctrl; % Ctrl [23]: 95 % Ctrl; % Ctrl [24]: 87 % Ctrl; % Ctrl [25]: 86 % Ctrl; % Ctrl [26]: 100 % Ctrl; % Ctrl [27]: 78 % Ctrl; % Ctrl [28]: 78 % Ctrl; % Ctrl [29]: 100 % Ctrl; % Ctrl [30]: 83 % Ctrl; % Ctrl [31]: 95 % Ctrl; % Ctrl [32]: 100 % Ctrl; % Ctrl [33]: 100 % Ctrl; % Ctrl [34]: 25 % Ctrl; % Ctrl [35]: 74 % Ctrl |
| CN(C)C(=O)c1ccc(N2CCCN(c3ccnc4sc(C(N)=O)c(N)c34)CC2)cc1 [15u, 3-amino-4-(4-(4-(dimethylcarbamoyl)phenyl)-1,4-diazepan-1-yl)thieno[2,3-b]pyridine-2-carboxamide] | 90 | 82 | 68 | 100 | 71 | 95 | 94 | 41 | 86 | 68 | 71 | 94 | 100 | 86 | 100 | 97 | 88 | 100 | 100 | 96 | % Ctrl [21]: 90 % Ctrl; % Ctrl [22]: 93 % Ctrl; % Ctrl [23]: 100 % Ctrl; % Ctrl [24]: 100 % Ctrl; % Ctrl [25]: 90 % Ctrl; % Ctrl [26]: 62 % Ctrl; % Ctrl [27]: 89 % Ctrl; % Ctrl [28]: 100 % Ctrl; % Ctrl [29]: 75 % Ctrl; % Ctrl [30]: 94 % Ctrl; % Ctrl [31]: 92 % Ctrl; % Ctrl [32]: 79 % Ctrl; % Ctrl [33]: 98 % Ctrl; % Ctrl [34]: 64 % Ctrl; % Ctrl [35]: 100 % Ctrl |
